Laboratory results as given in article PMC6199744, “Development of Chemical Proteomics for the Folateome and Analysis of the Kinetoplastid Folateome” (ACS Infectious Diseases, 2018).
Read-outs that look alike come from different tables or passages of the source.

What was measured:
Assay type in all cases: binding
[1] = biological target: T1, HeLa cell extract proteins (Homo sapiens, UniProt Q9ULX6)
T1 construct: endogenous in cells; host or cells: HeLa cell extract
T1 sequence (Q9ULX6 1-646): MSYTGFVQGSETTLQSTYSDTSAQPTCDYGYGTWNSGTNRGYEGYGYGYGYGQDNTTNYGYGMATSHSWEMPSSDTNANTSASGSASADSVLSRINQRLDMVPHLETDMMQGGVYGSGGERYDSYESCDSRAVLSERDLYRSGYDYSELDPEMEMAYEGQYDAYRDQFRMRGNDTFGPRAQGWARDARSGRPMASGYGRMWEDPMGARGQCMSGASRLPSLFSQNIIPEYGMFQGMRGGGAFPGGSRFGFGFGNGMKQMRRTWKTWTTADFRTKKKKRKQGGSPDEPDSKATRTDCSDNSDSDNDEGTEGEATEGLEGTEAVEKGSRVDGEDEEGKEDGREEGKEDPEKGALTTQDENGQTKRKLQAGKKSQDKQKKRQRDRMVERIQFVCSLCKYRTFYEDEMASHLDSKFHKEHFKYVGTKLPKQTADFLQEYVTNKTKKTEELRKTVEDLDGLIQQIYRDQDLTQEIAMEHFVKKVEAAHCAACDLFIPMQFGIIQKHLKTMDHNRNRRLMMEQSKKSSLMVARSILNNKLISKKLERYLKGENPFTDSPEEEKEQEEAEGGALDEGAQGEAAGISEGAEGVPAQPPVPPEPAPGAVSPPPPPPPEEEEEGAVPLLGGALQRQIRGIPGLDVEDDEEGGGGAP

[2] = biological target: T2, HeLa cell extract proteins (Homo sapiens, UniProt Q14566)
T2 construct: endogenous in cells; host or cells: HeLa cell extract
T2 sequence (Q14566 1-821): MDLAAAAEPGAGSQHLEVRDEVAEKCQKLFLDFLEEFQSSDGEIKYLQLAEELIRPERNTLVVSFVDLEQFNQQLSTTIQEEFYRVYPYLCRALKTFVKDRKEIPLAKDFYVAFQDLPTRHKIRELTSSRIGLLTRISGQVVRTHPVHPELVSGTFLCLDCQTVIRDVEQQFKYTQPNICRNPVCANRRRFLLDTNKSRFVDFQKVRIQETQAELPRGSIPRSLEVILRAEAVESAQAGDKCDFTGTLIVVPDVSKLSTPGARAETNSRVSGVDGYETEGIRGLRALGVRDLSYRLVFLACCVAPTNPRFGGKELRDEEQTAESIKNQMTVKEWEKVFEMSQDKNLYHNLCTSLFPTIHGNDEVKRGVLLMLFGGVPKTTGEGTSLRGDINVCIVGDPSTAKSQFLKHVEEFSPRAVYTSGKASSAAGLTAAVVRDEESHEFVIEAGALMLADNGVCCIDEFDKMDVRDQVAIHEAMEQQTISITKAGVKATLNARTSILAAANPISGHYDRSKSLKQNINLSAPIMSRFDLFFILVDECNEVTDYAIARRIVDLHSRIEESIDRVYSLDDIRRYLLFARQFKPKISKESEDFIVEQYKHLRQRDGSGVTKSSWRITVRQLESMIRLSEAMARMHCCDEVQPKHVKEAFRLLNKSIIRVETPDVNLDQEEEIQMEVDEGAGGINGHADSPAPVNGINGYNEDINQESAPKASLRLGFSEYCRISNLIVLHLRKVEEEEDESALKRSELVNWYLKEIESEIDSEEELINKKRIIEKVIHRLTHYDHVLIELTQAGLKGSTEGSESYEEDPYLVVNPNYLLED

[3] = biological target: T3, HeLa cell extract proteins (Homo sapiens, UniProt P62820)
T3 construct: endogenous in cells; host or cells: HeLa cell extract

[4] = biological target: T4, HeLa cell extract proteins (Homo sapiens, UniProt Q14978)
T4 construct: endogenous in cells; host or cells: HeLa cell extract
T4 sequence (Q14978 1-699): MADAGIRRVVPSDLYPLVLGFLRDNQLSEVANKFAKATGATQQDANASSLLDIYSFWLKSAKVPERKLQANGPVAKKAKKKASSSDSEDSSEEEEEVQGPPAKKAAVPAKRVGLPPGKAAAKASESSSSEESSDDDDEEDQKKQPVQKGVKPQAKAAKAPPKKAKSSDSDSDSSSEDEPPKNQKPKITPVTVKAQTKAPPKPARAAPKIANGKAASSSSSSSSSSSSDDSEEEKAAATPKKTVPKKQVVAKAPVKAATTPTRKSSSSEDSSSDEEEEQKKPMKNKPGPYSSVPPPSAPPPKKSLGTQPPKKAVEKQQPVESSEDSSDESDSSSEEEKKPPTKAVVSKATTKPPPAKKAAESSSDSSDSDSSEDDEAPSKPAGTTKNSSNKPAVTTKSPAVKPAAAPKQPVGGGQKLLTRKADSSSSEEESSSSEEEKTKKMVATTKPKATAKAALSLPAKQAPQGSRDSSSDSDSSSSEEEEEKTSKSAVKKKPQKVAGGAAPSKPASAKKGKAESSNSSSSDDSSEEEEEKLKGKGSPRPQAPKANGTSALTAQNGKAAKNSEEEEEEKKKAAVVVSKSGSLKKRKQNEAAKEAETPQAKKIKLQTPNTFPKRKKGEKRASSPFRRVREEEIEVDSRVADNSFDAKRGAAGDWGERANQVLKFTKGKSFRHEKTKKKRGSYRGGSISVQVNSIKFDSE

[5] = biological target: T5, HeLa cell extract proteins (Homo sapiens, UniProt P31153)
T5 construct: endogenous in cells; host or cells: HeLa cell extract

[6] = biological target: T6, HeLa cell extract proteins (Homo sapiens, UniProt O95429)
T6 construct: endogenous in cells; host or cells: HeLa cell extract
T6 sequence (O95429 1-457): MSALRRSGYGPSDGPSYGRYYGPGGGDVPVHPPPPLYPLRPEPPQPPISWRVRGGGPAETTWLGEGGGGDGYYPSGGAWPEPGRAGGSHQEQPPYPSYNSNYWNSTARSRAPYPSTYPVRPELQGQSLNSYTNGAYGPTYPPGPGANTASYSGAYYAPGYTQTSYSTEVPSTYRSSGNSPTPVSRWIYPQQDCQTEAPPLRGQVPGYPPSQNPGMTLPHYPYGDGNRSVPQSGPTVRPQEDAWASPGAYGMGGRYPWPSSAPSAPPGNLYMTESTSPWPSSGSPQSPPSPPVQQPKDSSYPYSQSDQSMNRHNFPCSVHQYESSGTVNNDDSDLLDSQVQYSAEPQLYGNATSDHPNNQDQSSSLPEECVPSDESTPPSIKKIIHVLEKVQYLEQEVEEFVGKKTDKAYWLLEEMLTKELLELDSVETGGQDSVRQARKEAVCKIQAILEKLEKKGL

[7] = biological target: T7, HeLa cell extract proteins (Homo sapiens, UniProt P68366)
T7 construct: endogenous in cells; host or cells: HeLa cell extract

[8] = HeLa, protein BAG4 (BAG FAMILY MOLECULAR CHAPERONE REGULATOR 4)

T7 sequence (P68366 whole entry): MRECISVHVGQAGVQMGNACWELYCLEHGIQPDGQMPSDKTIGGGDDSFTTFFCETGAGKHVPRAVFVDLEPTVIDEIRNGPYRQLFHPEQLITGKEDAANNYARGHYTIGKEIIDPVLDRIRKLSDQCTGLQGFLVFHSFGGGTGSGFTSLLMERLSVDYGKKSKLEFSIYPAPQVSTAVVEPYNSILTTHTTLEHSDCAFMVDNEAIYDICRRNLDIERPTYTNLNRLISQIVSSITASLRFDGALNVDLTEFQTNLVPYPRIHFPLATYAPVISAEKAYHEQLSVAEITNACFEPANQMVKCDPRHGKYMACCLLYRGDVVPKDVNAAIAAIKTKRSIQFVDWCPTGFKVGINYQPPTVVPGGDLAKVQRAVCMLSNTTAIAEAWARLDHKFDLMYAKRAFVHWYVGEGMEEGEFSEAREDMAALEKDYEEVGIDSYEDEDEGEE
T3 sequence (P62820 whole entry): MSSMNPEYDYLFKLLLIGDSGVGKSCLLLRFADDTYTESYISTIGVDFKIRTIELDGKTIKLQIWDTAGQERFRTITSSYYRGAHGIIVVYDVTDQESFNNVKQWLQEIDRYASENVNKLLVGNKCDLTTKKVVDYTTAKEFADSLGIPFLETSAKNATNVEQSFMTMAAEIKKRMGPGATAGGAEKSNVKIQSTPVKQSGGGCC
T5 sequence (P31153 whole entry): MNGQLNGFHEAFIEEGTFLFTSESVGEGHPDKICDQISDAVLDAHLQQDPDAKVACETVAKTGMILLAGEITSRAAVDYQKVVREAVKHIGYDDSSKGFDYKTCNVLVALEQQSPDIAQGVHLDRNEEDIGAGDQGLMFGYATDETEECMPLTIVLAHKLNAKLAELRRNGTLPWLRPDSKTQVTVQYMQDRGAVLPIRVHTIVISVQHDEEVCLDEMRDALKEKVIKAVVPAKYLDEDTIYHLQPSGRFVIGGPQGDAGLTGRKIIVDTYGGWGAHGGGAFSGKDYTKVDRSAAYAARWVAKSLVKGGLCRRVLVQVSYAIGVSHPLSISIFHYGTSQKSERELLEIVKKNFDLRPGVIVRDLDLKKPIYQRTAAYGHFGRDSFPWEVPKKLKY

Row | SMILES | fold changes relative to vehicle control ([1]; captured protein AKAP8L, HeLa) | fold changes relative to vehicle control ([2]; protein MCM6, HeLa) | fold changes relative to vehicle control ([3]; captured protein RAB1A, HeLa) | fold changes relative to vehicle control ([4]; protein NOLC1, HeLa) | fold changes relative to vehicle control ([5]; protein MAT2A, HeLa) | fold changes relative to vehicle control ([6]; captured protein BAG4, HeLa) | fold changes relative to vehicle control ([7]; captured protein TUBA4A, HeLa) | fold changes relative to vehicle control ([1]; HeLa, protein AKAP8L) | fold changes relative to vehicle control ([2]; HeLa, protein MCM6) | fold changes relative to vehicle control ([3]; HeLa, protein RAB1A) | fold changes relative to vehicle control ([5]; HeLa, protein MAT2A) | fold changes relative to vehicle control [6, 8] | fold changes relative to vehicle control ([7]; HeLa, protein TUBA4A) | fold changes relative to vehicle control [1] | fold changes relative to vehicle control [2] | fold changes relative to vehicle control [3] | fold changes relative to vehicle control [4] | fold changes relative to vehicle control [5] | fold changes relative to vehicle control [6] | fold changes relative to vehicle control [7]
1 | Nc1nc2cccc(-c3ccccc3)c2n1Cc1ccc(Cl)c(Cl)c1 [compound 3] | 0.92 | 0.91 | 0.91 | 0.96 | 1.01 | 1.25 | 1.01 | – | – | – | – | – | – | – | – | – | – | – | – | –
2 | CCCCCCOc1ccc(Cc2cnc(N)nc2N)cc1 [compound 1] | 0.79 | 1.15 | 0.74 | 0.9 | 1.21 | 0.99 | 0.95 | – | – | – | – | – | – | – | – | – | – | – | – | –
3 | NCCCNc1ccc(C(=O)NC(CCC(=O)O)C(=O)O)cc1 (stereo not shown) [compound 7] | – | – | – | 0.9 | – | – | – | 1.08 | 1.06 | 1.07 | 1 | 1.12 | 0.99 | – | – | – | – | – | – | –
4 | CCCCCCOc1cccc(Cc2cnc(N)nc2N)c1 [compound 2] | 1.03 | 2.32 | 1.19 | 1.44 | 1.55 | 0.93 | 0.88 | – | – | – | – | – | – | – | – | – | – | – | – | –
5 | NCCOCCOCC(=O)Nc1nc2ncc(CNc3ccc(C(=O)NC(CCC(=O)O)C(=O)O)cc3)nc2c(=O)[nH]1 (stereo not shown) [compound 6] | – | – | – | 0.96 | – | – | – | 1.01 | 1.3 | 1.21 | 1.16 | 1.03 | 0.98 | – | – | – | – | – | – | –
6 | Nc1nc2[nH]cc(CCc3ccc(C(=O)N[C@@H](CCC(=O)O)C(=O)O)cc3)c2c(=O)[nH]1 [PTX, pemetrexed] | – | – | – | – | – | – | – | – | – | – | – | – | – | 0.95 | 1.05 | 1.17 | 0.87 | 1.07 | 1.05 | 0.83
7 | Nc1nc2c(c(=O)[nH]1)N(C=O)C(CNc1ccc(C(=O)N[C@@H](CCC(=O)O)C(=O)O)cc1)CN2 (stereo partly shown) [LEU, leucovorin] | – | – | – | 0.93 | – | – | – | 1.01 | 1.28 | 1.2 | 0.99 | 1.2 | 0.9 | – | – | – | – | – | – | –
